# Source: US20260201324A1, “METHOD FOR DIFFERENTIATING NEURAL CREST STEM CELLS COMPRISING AXIAL SPECIFICATION INFORMATION” (BLESS BIOTHERAPEUTICS INC., priority 2022, published 2026)
# Columns and labels:
# Type in all cases: cell-based, human
# [1] = tested on: initial NCSCs (expressing p75 NGFR or HNK1); assay: Gene expression analysis of NCSCs after second differentiation with axial specification stimulating factor
# Protocol: The NCSCs at the neural plate border-stage (cells on Day 5 of the differentiation) expressing p75 NGFR or HNK1 isolated by FACS in Example 3-1 were re-seeded at 300,000 cells per well in a 24-well plate coated with Geltrex, Matrigel, or Laminin+Fibronectin. After 24 hours, the PIM medium added on Day 5 for stabilization was gradually changed to a neurobasal medium containing 2% B-27 supplement, 1% N2 supplement, and 1% Glutamax together with fibroblast growth factor 2 (FGF2) (Table 2). As an axial specification stimulating factor, FGF2 was added to the culture medium on days 6 to 10 of differentiation, and the proliferated neural crest stem cells were purified by FACS using an antibody against the neural crest stem cell surface antigen p75 NGFR on days 11 to 14 of differentiation (FIG. 4).
# Accordingly, it was confirmed that the role of the non-NCSCs is to activate FGF signaling of the initial NCSCs, inducing to cranial specification.
# SOX9 reporter hESCs = assay: Differentiation into cranial NCSCs using SOX9 reporter hESC (FACS)
# Source text: (§1) The initial NCSCs were isolated on Day 5 of the differentiation, and then, on Days 5 or 10, the expression of the ETS1 protein was confirmed in the FGF2-treated NCSCs by immunochemical analysis, and the direct effects of various signaling factors on the initial NCSCs were confirmed by FACS analysis.
# When NCSCs were differentiated without FGF2 treatment using SOX9: reporter hESC, a known marker of cranial NCSCs, the differentiation efficiency into cranial NCSCs was approximately 25%, and when treated with bFGF, the percentage of SOX9-expressing cells was 80% or more (FIGS. 8C and 8D).
# initial NCSCs = assay: Mechanism analysis of axial specification of initial NCSCs by signaling factors (immunochemical analysis, FACS); settings: initial NCSCs isolated on Day 5; for ETS1 protein expression: FGF2 effect through BMP4
# Source text: as §1
# [2] = tested on: NCSCs at the neural plate border-stage; assay: mRNA expression of cranial and cardiac NCSC markers after second differentiation
# Source text: The NCSCs (those on Day 5 of the differentiation) at the neural plate border-stage obtained through the first differentiation in Example 3-1 were re-distributed and each treated with bFGF or CHIR99021+ retinoic acid to be differentiated into cranial NCSCs or cardiac NCSCs.
# [3] = NCSCs treated at second differentiation
Molecule,"expression of the HOX gene [1, 3]","expression of the TWIST1 gene (marker gene of cranial NCSCs) [1, 3]","expression ratio of ETS1/ZIC1 ([1]; second culture for 5 days, isolated initial NCSC group and unisolated mixed cell group)","ZIC1 gene expression in single cells ([1]; single NCSCs, from Day 4)","percentage of SOX9-expressing cells (SOX9 reporter hESCs; SOX9 reporter hESC, cranial NCSC differentiation) [%]",differentiation efficiency from SOX9 reporter hESCs into cranial neural crest stem cells (SOX9 reporter hESCs; two-step differentiation method),ZIC1 gene expression (initial NCSCs),ETS1 protein expression (initial NCSCs),ZIC1 gene expression (initial NCSCs; listed as bFGF),mRNA expression of PRRX2 (cranial NCSC marker) [2],mRNA expression of SOX9 (cranial NCSC marker) [2],mRNA expression of TWIST1 (cranial NCSC marker) [2]
fibroblast growth factor 2 [FGF2],decreased expression,increased expression,increased,significant decrease,≥ 80,about 80%,inhibit,promotion,inhibitory effect,increased,increased,increased
"BMP4: signaling protein promoting ETS1 in initial neural crest stem cells (protein, UniProt P12644 293-408, looked up) Bone morphogenetic protein 4: SPKHHSQRARKKNKNCRRHSLYVDFSDVGWNDWIVAPPGYQAFYCHGDCPFPLADHLNSTNHAIVQTLVNSVNSSIPKACCVPTELSAISMLYLDEYDKVVLKNYQEMVVEGCGCR",,,,,,,,promotion,,,,
